According to ChEMBL document CHEMBL5291721, “A preclinical secondary pharmacology resource illuminates target-adverse drug reaction associations of marketed drugs” (Nat Commun, 2023):

What was measured:
[1] = target: Acetylcholinesterase (Homo sapiens, UniProt P22303); type: functional
[2] = target: T1, Adenosine receptor A3 (Homo sapiens, UniProt P0DMS8)
T1 sequence (P0DMS8 whole entry): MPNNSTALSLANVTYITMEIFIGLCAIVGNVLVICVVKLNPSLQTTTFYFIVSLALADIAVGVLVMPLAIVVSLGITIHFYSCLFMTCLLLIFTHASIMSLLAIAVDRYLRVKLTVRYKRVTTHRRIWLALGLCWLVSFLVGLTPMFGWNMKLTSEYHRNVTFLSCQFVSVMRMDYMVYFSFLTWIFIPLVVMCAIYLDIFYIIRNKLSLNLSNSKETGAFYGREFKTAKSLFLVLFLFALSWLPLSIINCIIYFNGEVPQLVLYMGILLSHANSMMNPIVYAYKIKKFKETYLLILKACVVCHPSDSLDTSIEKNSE

[3] = target: T2, Alpha-1A adrenergic receptor (Homo sapiens, UniProt P35348); type: functional, cell-based
T2 sequence (P35348 whole entry): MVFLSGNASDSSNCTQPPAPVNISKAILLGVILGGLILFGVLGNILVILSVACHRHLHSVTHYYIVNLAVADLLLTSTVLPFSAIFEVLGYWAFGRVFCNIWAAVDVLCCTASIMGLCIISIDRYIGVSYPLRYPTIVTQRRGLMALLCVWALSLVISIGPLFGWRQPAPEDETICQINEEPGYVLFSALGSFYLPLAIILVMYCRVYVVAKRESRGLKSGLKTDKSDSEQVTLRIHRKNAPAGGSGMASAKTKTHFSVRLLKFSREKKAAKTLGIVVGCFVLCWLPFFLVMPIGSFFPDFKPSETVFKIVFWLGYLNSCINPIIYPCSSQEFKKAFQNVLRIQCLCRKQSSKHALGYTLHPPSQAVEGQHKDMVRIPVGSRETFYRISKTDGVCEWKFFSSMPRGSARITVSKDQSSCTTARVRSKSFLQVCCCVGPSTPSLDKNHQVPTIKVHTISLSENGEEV

[4] = target: D(1A) dopamine receptor (Homo sapiens, UniProt P21728)
[5] = target: Prothrombin (Homo sapiens, UniProt P00734); type: functional
[6] = target: Histamine H3 receptor (Homo sapiens, UniProt Q9Y5N1)
[7] = target: 5-hydroxytryptamine receptor 2B (Homo sapiens, UniProt P41595); type: functional, cell-based
[8] = target: Voltage-gated inwardly rectifying potassium channel KCNH2 (Homo sapiens, UniProt Q12809); type: functional; details: read-out: AC50
[9] = target: Mu-type opioid receptor (Homo sapiens, UniProt P35372)
[10] = target: T3, Progesterone receptor (Homo sapiens, UniProt P06401)
T3 sequence (P06401 whole entry): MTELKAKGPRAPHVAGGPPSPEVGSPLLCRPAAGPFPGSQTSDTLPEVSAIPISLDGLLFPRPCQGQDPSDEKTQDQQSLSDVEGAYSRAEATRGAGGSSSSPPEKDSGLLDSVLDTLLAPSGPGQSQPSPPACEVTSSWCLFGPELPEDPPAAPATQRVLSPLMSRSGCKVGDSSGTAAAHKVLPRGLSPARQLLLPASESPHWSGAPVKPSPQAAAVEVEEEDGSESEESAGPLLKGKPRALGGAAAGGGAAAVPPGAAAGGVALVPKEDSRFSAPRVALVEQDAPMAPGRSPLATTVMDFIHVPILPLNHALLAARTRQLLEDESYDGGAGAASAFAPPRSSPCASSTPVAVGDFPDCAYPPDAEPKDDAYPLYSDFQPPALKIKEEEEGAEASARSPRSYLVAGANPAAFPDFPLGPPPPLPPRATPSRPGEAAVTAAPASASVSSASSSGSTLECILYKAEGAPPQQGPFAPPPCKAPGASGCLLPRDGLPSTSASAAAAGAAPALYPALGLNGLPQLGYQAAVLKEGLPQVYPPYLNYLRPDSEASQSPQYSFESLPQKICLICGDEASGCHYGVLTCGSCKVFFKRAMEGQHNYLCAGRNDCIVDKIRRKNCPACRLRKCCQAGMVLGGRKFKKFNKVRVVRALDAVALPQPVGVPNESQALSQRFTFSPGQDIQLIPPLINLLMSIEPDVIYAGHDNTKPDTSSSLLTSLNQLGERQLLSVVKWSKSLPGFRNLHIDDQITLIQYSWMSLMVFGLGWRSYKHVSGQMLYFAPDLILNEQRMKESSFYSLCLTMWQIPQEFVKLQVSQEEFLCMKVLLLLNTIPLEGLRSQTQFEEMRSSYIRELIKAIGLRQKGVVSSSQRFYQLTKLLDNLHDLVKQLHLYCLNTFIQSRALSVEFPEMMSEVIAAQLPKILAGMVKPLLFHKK

[11] = target: T4, Prostaglandin G/H synthase 1 (Homo sapiens, UniProt P23219); type: functional
[12] = target: T4, Prostaglandin G/H synthase 1; type: functional; remark: listed apart in the source
[13] = target: Sodium-dependent dopamine transporter (Homo sapiens, UniProt Q01959)
[14] = target: Sodium-dependent serotonin transporter (Homo sapiens, UniProt P31645)
[15] = target: T5, Thromboxane A2 receptor (Homo sapiens, UniProt P21731); type: functional, cell-based
T5 sequence (P21731 whole entry): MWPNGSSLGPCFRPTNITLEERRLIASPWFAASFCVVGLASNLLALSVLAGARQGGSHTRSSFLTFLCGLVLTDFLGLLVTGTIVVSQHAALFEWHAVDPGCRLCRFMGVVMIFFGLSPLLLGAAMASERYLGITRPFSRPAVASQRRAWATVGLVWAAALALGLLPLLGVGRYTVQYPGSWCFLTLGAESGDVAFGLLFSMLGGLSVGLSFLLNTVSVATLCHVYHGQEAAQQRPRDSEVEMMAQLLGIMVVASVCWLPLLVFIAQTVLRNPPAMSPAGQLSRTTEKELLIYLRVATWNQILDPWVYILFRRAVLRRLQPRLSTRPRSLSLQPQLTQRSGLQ

[16] = target: T5, Thromboxane A2 receptor; type: functional, cell-based; remark: listed apart in the source
[17] = target: D(3) dopamine receptor (Homo sapiens, UniProt P35462)
Further: assay procedure not described here.

Sequence of Sodium-dependent serotonin transporter (P31645 whole entry): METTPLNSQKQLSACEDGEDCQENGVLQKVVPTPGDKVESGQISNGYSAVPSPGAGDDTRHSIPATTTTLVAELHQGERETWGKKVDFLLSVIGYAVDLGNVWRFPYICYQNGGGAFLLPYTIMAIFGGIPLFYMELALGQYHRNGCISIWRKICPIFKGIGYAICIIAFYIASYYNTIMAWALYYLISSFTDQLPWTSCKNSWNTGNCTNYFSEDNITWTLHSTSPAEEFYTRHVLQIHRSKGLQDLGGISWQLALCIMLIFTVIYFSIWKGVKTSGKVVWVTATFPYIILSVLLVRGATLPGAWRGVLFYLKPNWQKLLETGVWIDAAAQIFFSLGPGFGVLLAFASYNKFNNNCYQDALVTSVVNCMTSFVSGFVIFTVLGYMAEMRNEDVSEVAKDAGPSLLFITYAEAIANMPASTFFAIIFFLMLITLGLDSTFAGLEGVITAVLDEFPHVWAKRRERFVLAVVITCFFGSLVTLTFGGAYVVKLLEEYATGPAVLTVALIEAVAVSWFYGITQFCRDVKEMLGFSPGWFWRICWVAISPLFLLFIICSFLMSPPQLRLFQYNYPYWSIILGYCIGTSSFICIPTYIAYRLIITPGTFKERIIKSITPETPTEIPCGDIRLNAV
Sequence of Voltage-gated inwardly rectifying potassium channel KCNH2 (Q12809 whole entry): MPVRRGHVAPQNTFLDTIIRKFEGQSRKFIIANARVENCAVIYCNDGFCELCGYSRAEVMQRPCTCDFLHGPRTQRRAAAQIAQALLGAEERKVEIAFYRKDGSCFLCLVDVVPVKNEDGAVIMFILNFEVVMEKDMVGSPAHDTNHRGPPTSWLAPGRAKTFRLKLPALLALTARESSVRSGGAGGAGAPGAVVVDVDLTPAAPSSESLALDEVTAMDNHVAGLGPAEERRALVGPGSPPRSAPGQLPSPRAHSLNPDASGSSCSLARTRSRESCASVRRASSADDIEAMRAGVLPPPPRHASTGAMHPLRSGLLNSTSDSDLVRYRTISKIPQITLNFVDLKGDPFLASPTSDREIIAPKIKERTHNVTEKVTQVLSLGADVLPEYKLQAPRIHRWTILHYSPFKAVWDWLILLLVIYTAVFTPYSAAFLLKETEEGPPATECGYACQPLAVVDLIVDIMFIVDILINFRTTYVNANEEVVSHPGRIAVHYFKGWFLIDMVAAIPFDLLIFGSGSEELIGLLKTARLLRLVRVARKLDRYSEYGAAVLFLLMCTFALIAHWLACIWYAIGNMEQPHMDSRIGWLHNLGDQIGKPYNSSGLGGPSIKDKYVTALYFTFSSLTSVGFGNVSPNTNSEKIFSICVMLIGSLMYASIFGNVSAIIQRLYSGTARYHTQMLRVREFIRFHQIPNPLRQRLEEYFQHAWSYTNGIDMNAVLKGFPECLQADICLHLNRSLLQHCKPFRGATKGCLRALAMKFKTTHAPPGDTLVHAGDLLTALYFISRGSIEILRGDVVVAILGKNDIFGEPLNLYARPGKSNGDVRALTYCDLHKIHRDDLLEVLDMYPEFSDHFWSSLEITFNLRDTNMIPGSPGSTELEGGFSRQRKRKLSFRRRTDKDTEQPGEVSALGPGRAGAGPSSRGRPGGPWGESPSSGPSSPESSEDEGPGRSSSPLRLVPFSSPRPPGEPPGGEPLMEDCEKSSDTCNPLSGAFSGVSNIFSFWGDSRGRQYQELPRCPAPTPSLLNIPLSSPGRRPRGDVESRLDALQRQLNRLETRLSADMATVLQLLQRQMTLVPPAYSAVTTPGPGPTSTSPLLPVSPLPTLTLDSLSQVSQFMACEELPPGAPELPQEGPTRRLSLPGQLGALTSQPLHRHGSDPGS
Sequence of 5-hydroxytryptamine receptor 2B (P41595 whole entry): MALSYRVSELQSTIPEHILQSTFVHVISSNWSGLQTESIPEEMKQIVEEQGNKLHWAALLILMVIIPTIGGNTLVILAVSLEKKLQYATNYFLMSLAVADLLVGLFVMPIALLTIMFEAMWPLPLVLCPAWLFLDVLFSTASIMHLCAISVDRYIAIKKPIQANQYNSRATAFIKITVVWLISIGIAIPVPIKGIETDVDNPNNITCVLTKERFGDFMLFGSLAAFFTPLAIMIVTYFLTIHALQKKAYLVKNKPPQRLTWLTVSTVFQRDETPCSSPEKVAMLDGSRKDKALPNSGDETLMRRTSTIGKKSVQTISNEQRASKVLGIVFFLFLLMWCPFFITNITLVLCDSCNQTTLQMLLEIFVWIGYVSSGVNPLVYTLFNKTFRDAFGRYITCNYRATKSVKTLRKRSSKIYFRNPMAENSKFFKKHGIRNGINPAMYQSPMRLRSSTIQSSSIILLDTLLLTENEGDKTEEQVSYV
Sequence of Mu-type opioid receptor (P35372 whole entry): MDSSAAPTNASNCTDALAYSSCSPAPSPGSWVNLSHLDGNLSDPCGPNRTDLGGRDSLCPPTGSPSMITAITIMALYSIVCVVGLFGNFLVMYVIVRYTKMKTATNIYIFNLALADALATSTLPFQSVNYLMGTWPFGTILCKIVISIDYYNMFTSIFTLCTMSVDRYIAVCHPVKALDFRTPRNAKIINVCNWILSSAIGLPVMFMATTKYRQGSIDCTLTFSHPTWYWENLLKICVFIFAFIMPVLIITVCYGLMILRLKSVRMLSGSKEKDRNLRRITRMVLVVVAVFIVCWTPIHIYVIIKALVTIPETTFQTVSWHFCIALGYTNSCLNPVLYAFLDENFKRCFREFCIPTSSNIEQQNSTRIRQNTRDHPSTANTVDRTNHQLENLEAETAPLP
Sequence of Histamine H3 receptor (Q9Y5N1 whole entry): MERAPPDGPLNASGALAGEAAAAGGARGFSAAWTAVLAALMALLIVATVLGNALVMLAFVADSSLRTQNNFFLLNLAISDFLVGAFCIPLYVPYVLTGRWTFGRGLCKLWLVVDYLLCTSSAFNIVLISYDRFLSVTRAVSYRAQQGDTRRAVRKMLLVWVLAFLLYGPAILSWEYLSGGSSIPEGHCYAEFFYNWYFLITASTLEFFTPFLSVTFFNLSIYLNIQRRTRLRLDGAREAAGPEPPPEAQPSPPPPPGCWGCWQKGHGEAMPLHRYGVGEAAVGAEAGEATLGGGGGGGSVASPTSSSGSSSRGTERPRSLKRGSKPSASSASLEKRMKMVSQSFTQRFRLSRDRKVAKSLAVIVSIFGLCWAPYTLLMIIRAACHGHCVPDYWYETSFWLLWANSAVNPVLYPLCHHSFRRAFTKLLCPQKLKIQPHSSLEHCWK
T4 sequence (P23219 whole entry): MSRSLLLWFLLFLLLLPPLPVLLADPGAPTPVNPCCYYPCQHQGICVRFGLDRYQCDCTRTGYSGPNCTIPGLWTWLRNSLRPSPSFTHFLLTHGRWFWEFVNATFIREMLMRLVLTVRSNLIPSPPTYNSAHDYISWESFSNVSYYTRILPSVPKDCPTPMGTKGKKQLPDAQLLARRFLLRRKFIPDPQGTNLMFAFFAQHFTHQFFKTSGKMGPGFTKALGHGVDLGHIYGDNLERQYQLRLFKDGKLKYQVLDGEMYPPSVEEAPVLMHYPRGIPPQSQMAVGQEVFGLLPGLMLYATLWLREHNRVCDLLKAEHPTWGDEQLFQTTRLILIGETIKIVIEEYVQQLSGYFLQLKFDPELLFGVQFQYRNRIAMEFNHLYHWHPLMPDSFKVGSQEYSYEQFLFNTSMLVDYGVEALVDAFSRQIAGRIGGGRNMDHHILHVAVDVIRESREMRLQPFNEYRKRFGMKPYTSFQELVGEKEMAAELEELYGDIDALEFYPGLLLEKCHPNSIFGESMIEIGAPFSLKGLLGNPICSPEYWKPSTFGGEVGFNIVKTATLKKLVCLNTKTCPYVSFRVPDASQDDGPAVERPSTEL
Sequence of Acetylcholinesterase (P22303 whole entry): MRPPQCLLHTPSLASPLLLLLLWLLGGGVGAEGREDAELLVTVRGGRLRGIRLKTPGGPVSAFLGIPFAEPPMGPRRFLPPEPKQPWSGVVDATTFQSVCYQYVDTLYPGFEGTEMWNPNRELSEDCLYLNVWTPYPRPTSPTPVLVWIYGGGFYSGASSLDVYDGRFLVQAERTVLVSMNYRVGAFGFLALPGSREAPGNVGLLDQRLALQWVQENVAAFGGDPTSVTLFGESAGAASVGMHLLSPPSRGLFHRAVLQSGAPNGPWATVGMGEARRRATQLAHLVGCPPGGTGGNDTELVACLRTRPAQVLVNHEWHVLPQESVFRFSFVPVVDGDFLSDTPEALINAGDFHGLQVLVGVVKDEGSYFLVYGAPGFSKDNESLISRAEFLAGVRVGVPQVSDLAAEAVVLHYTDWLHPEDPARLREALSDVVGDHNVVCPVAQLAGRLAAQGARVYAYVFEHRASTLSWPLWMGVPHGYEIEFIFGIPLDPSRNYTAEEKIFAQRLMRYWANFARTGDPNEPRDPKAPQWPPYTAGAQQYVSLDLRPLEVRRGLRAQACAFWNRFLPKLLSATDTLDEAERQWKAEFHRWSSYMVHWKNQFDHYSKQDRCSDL
Sequence of Sodium-dependent dopamine transporter (Q01959 whole entry): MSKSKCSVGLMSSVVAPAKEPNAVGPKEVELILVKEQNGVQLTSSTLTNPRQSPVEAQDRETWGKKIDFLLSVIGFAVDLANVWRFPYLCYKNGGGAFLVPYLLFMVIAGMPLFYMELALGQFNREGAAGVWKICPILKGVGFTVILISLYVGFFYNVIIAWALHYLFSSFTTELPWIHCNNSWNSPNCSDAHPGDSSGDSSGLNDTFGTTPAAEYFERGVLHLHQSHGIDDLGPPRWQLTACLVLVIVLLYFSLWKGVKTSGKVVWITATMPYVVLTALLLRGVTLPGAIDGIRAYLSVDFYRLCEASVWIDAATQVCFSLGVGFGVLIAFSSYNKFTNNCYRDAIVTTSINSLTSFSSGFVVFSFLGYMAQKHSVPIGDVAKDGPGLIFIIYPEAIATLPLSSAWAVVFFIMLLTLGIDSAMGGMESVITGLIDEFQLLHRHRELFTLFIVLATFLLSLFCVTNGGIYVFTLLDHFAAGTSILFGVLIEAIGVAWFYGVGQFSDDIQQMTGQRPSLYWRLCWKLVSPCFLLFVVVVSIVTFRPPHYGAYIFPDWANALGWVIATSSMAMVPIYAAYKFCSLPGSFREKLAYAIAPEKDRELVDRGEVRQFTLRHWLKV

| Structure (SMILES) | AC50 [1] [µM] | AC50 [2] [µM] | AC50 [3] [µM] | AC50 [4] [µM] | AC50 [5] [µM] | AC50 [6] [µM] | AC50 [7] [µM] | AC50 [8] [µM] | AC50 [9] [µM] | AC50 [10] [µM] | AC50 [11] [µM] | AC50 [12] [µM] | AC50 [13] [µM] | AC50 [14] [µM] | AC50 [15] [µM] | AC50 [16] [µM] | AC50 [17] [µM] |
| --- | --- | --- | --- | --- | --- | --- | --- | --- | --- | --- | --- | --- | --- | --- | --- | --- | --- |
| NS(=O)(=O)c1cc2c(cc1Cl)NC(C1CC3C=CC1C3)NS2(=O)=O (stereo not drawn) [CYCLOTHIAZIDE] | > 30 | > 30 | > 30 | > 30 | > 30 | > 30 | > 30 | > 30 | > 30 | > 30 | > 30 | > 30 | > 30 | > 30 | > 30 | > 30 | – |
| O=C(NC1CCN(CCCCC2(C(=O)NCC(F)(F)F)c3ccccc3-c3ccccc32)CC1)c1ccccc1-c1ccc(C(F)(F)F)cc1 [LOMITAPIDE] | > 30 | 4.4 | 2.4 | 1.49 | > 30 | > 30 | > 30 | 0.86 | 4.02 | > 30 | 23.2 | > 30 | 0.239 | > 30 | 8.46 | > 1 | 1.76 |
| CC(C)Cc1ccc(C(C)C(=O)NO)cc1 (stereo not drawn) [IBUPROXAM] | > 30 | > 30 | > 30 | > 30 | > 30 | > 30 | > 30 | > 30 | > 30 | > 30 | > 30 | – | > 30 | > 30 | > 30 | > 30 | > 30 |
| CCC1(c2cccc(O)c2)CCCCN(C)C1 (stereo not drawn) [MEPTAZINOL] | 5.51 | > 30 | > 30 | > 30 | > 30 | > 30 | > 30 | > 30 | – | > 30 | > 30 | > 3 | > 30 | 13.5 | > 30 | > 30 | > 30 |
| O=[N+]([O-])c1cncn1CCN1CCOCC1 [NIMORAZOLE] | > 30 | > 30 | > 30 | > 30 | > 30 | > 30 | > 30 | – | > 30 | > 30 | > 30 | > 30 | > 30 | > 30 | > 30 | > 30 | > 30 |
| CCC1C(C)=NN=C(c2ccc(OC)c(OC)c2)c2cc(OC)c(OC)cc21 (stereo not drawn) [TOFISOPAM] | > 30 | > 30 | > 30 | > 30 | > 30 | > 30 | > 30 | > 30 | > 30 | > 30 | > 30 | > 30 | > 30 | > 30 | > 30 | > 30 | – |
| COc1cc2c(cc1OC)[C@H]1C[C@@H](OC(=O)[C@@H](N)C(C)C)[C@H](CC(C)C)CN1CC2 [VALBENAZINE] | > 30 | > 30 | > 30 | > 30 | > 30 | > 30 | > 30 | – | 21.6 | > 30 | 5.44 | 24.1 | > 30 | > 30 | > 30 | 13.9 | > 30 |
| CC(=O)OC(C)C[N+](C)(C)C (stereo not drawn) [METHACHOLINE] | > 30 | > 30 | > 30 | > 30 | > 30 | > 30 | > 30 | > 30 | > 30 | > 30 | > 30 | > 30 | > 30 | > 30 | 0.824 | – | > 30 |
| CCCCN(CCCC)CCCOC(=O)c1ccc(N)cc1 [BUTACAINE] | > 30 | > 30 | > 30 | > 30 | > 30 | > 30 | > 30 | 5.4 | > 30 | – | > 30 | > 30 | 2 | > 30 | > 30 | > 30 | 5.52 |
| CCN(CC)CCNc1ccc(C)c2sc3ccccc3c(=O)c12 [LUCANTHONE] | > 30 | 12.4 | – | 6.04 | > 30 | 10.5 | > 30 | 1.3 | 11.8 | > 30 | > 30 | > 30 | 3.42 | 6.25 | > 30 | 13.4 | 0.91 |
| O=C(c1ccc(F)c(F)c1Nc1ccc(I)cc1F)N1CC(O)([C@@H]2CCCCN2)C1 [COBIMETINIB] | > 30 | > 30 | 13.6 | 24.1 | > 30 | > 30 | > 30 | – | 0.271 | > 30 | > 30 | > 30 | 7.3 | 7.82 | 17.6 | > 3 | 24.1 |
| C[C@@H]1C[C@H]2[C@@H]3C[C@H](F)C4=CC(=O)C(Cl)=C[C@]4(C)[C@@]3(F)[C@@H](O)C[C@]2(C)[C@@]1(O)C(=O)CO [HALOMETASONE] | > 30 | > 30 | 23.3 | > 30 | > 30 | > 30 | > 30 | > 30 | > 30 | 7.72 | > 30 | > 30 | > 30 | > 30 | > 30 | 18.6 | – |
